Reference: patent EP0114002B1, “Benzothiopyrano(4,3,2,-cd)indazoles, their pharmaceutical compositions and methods for their production” (WARNER-LAMBERT COMPANY, priority 1983, dated 1984)

How the values were obtained:
[1] = system: Streptococcus faecalis 05045; test: in vitro antibacterial/antifungal (ABF) agar-disk diffusion test; type: cell-based; conditions: Enterococcus faecalis, AM-09 medium, read-out: ABF Zone Diameter (cont. in mg/ml) S. Fae-calis; for zone of inhibition at 3000 µg/mL: 3 mg/ml; for zone of inhibition at 1000 µg/mL: 1 mg/ml
Procedure: (§1) Still another test protocol is the in vitro antibacterial/antifungal (ABF) test. Compounds are tested for antimicrobial activity in an agar-disk diffusion assay, a standard microbiological technique for testing antibiotics'. After incubation of each culture with a test compound, a zone of inhibition is determined. The zone diameter (mm) of active compounds ranges from a minimum of 13.5 mm to as high as 60 mm, with a greater diameter reflecting higher activity. For convenience, values are reported for two gram-negative bacteria (Aerobacter aerogenes 0126 and Escherichia coli 04863), two gram-positive bacteria (Bacillus subtilis 04555 and Streptococcus faecalis 05045 utilizing AM-09 medium), and one mycelial fungus (Penicillium avellaneum M2988).

[2] = system: Penicillium avellaneum M2988; test: as above; type: cell-based; conditions: Hamigera avellanea, read-out: ABF Zone Diameter (cont. in mg/ml) P. Avell-aneum; for zone of inhibition at 3000 µg/mL: 3 mg/ml
Procedure: as §1

[3] = system: Aerobacter aerogenes 0126; test: as above; type: cell-based; conditions: Klebsiella aerogenes, read-out: ABF Zone Diameter (cont. in mg/ml) A. Aero-genes; for zone of inhibition at 3000 µg/mL: 3 mg/ml; for zone of inhibition at 500 µg/mL: 0.5 mg/ml
Procedure: as §1

Escherichia coli 04863 = test: as above; type: cell-based; conditions: read-out: ABF Zone Diameter (cont. in mg/ml) E. Coli; for zone of inhibition at 3000 µg/mL: 3 mg/ml; for zone of inhibition at 100 µg/mL: 0.1 mg/ml
Procedure: as §1

Bacillus subtilis 04555 = test: as above; type: cell-based; conditions: read-out: ABF Zone Diameter (cont. in mg/ml) B. Sub-tilis; for zone of inhibition at 500 µg/mL: 0.5 mg/ml; for zone of inhibition at 3000 µg/mL: 3 mg/ml
Procedure: as §1

[4] = system: lymphocytic leukemia P388; test: in vivo lymphocytic leukemia P388 test; parameters: species or system mice; conditions: for response vs control in vivo at 12.5 mg/kg: Dose 12.50 mg/kg intraperitoneally once daily for five days; for response vs control in vivo at 25 mg/kg: Dose 25.00 mg/kg intraperitoneally once daily for five days; for response vs control in vivo at 50 mg/kg: Dose 50.00 mg/kg intraperitoneally once daily for five days; for P388 in vivo Cures: remark printed beside T/C × 100; for response vs control in vivo at 6.25 mg/kg: Dose 6.25 mg/kg intraperitoneally once daily for five days
Procedure: Another test protocol is the in vivo lymphocytic leukemia P388 test. The animals used are either male or female CD2F, mice. There are six or seven animals per test group. The tumor transplant is by intraperitoneal injection of dilute ascitic fluid containing cells of lymphocytic leukemia P388. The test compounds are administered intraperitoneally once daily for five consecutive days at various doses following tumor inoculation. The animals are weighed and survivors are recorded on a regular basis for 30 days. A compound is designated "toxic" if, at a given dose, all animals died prior to four days after the first injection of drug. A ratio of survival time for treated (T)/control (C) animals is calculated. A criterion for efficacy is a ratio T/C times 100 greater than or equal to 125. See Cancer Chemotherapy Reports, Part 3, 3; 1 (1972) for a comprehensive discussion of the protocol.

HCT-8 cells = test: in vitro proliferating human colon adenocarcinoma (HCA) cell screen; type: cell-based; conditions: Table 1, 60 to 65 hours with compound, 50% inhibition of growth, read-out: HCA—3 in vitro ID50
Procedure: One test protocol is the in vitro proliferating human colon adenocarcinoma (HCA) cell screen. In this test, HCT-8 cells (HCA cell line received from Yale University) are trypsinized using trypsin-EDTA. A single cell suspension is achieved by passing the cells through a 26 gauge needle with a 20 cc syringe. A cell suspension is prepared using RPMI 1640 + 10% FCS + 50) g/ml gentamicin sulfate with a cell concentration of approximately 30,000 cells/ml. The cell suspension is dispensed in Linbro 24-well plates; 1 ml/well. The plates are incubated for approximately 48 hours at 37°C in a 5% C02 atmosphere. At this time test compounds are added in the appropriate concentration. Five µl of the 200 µg/ml stock solution is added to each well in primary test. Ten µl of the appropirate dilution is added to each well for a titration test. The plates are re-incubated an additional 60 to 65 hours at 37°C in a 5% C02 atmosphere. The cells are lysed using a mix of cationic surfactant, glacial acetic acid, and sodium chloride. Two ml of the lysed cell suspension from each well is added to 8 ml of diluent. The number of nuclei is determined using a Coulter counter (ZBI model), and a percent growth for each drug concentration is calculated. From this, an ID50 molar concentration of a compound (that results in 50% inhibition of growth) is determined.

L1210 cells = test: L1210 murine leukemia cell growth inhibition in vitro; type: cell-based; conditions: Mus musculus, 72 h, Table 1, three days incubation, 50% inhibition of growth, read-out: L1210 in vitro ID50
Procedure: Another test protocol uses L1210 cells, a murine leukemia cell line, grown in RPMI 1640 supplemented with 5% fetal bovine serum and gentamicin ([…]). Drug dilutions are prepared in the appropriate solvent and 20 µl of each dilution are added to 24-well Linbro tissue culture plates, followed by the addition of 2.0 ml of cell suspension containing 3 x 10^4 cells per ml. Solvent and medium controls are included in each test. After incubation at 37°C forthree days in 5% C02, the contents of each well are removed and the cells counted in a ZBI Coulter counter. Percent growth are calculated relative to the controls and the levels of drug activity are expressed as ID50 in moles per liter.

[5] = Mus musculus, P388, ip, 120 h, read-out: P388 in vivo T/C × 100

SMILES: CCN(CC)CCn1nc2c3c(c(NC(C)=O)ccc31)Sc1ccccc1-2 [CH2CH2N(C2H5)2 / NHCOCH3, N-[2-[2-(Diethylamino)ethyl]-2H-[1]benzothiopyrano[4,3,2-cd]indazol-5-yl]acetamide]
- zone of inhibition at 3000 µg/mL [1]: 15 mm
- zone of inhibition at 3000 µg/mL [2]: 0 mm
- zone of inhibition at 3000 µg/mL [3]: 16 mm
- zone of inhibition at 3000 µg/mL (Escherichia coli 04863): 16 mm
- zone of inhibition at 500 µg/mL (Bacillus subtilis 04555): 16 mm
- response vs control in vivo at 12.5 mg/kg [4, 5]: 170%
- IC50 (HCT-8 cells): 600 nM
- IC50 (L1210 cells): 240 nM

SMILES: CCN(CC)CCn1nc2c3c(c([N+](=O)[O-])ccc31)Sc1ccccc1-2 [CH2CH2N(CH2H5)2 / HO2, N,N-Diethyl-5-nitro-2H[1]benzothiopyrano[4,3,2-cd]-indazole-2-ethanamine]
- zone of inhibition at 3000 µg/mL [1]: 14 mm
- zone of inhibition at 3000 µg/mL [2]: 15 mm
- zone of inhibition at 3000 µg/mL [3]: 0 mm
- zone of inhibition at 1000 µg/mL (Escherichia coli 04863; 1 mg/ml): 14 mm
- zone of inhibition at 3000 µg/mL (Bacillus subtilis 04555): 14 mm
- response vs control in vivo at 25 mg/kg [4, 5]: 138%
- response vs control in vivo at 50 mg/kg [4, 5]: 170%
- IC50 (HCT-8 cells): 200 nM
- IC50 (L1210 cells): 56 nM

SMILES: CCN(CC)CCn1nc2c3c(c(NCCN)ccc31)Sc1ccccc1-2 [CH2CH2N(C2H5)2 / NHCH2CH2NH2, N-[2-[2-(Diethylamino)ethyl]-2H[1]benzothiopyrano[4,3,2-cd]indazol-5-yl]-1,2-ethanediamine]
- zone of inhibition at 1000 µg/mL [1]: 15 mm
- zone of inhibition at 3000 µg/mL [2]: 0 mm
- zone of inhibition at 500 µg/mL [3]: 19 mm
- zone of inhibition at 3000 µg/mL (Escherichia coli 04863): 0 mm
- zone of inhibition at 500 µg/mL (Bacillus subtilis 04555): 20 mm
- P388 in vivo Cures ([4]; Dose 12.50 mg/kg): Cures
- P388 in vivo Cures ([4]; Dose 25.00 mg/kg): Cures
- response vs control in vivo at 3.12 mg/kg ([4]; Mus musculus, P388, ip, 120 h, Dose 3.12 mg/kg intraperitoneally once daily for five days, read-out: P388 in vivo T/C × 100): 178%
- response vs control in vivo at 6.25 mg/kg [4, 5]: 215%
- response vs control in vivo at 12.5 mg/kg [4, 5]: 297%
- response vs control in vivo at 25 mg/kg [4, 5]: 148%
- IC50 (HCT-8 cells): 97 nM
- IC50 (L1210 cells): 46 nM

SMILES: CCN(CC)CCn1nc2c3c(c(N)ccc31)Sc1ccccc1-2 [CH2CH2N(C2H5)2 / NH2, 5-Amino-N,N-diethyl-2H[1]benzothiopyrano[4,3,2-cd]indazole-2-ethanamine]
- zone of inhibition at 1000 µg/mL [1]: 14 mm
- zone of inhibition at 1000 µg/mL ([2]; 1 mg/ml): 14 mm
- zone of inhibition at 3000 µg/mL [3]: 0 mm
- zone of inhibition at 3000 µg/mL (Escherichia coli 04863): 0 mm
- zone of inhibition at 3000 µg/mL (Bacillus subtilis 04555): 0 mm
- response vs control in vivo at 12.5 mg/kg [4, 5]: 144%
- response vs control in vivo at 25 mg/kg [4, 5]: 162%
- IC50 (HCT-8 cells): 1100 nM
- IC50 (L1210 cells): 130 nM

SMILES: CCN(CC)CCn1nc2c3c(c(N=CN(C)C)ccc31)Sc1ccccc1-2 [CH2CH2N(C2H5)2 / N=CHN(CH3)2, N'-[2-(2-(Diethylamino)ethyl]-2H[1]benzothiopyrano[4,3,2-cd]indazol-5-yl]-N,N-dimethyl-methanimidamide]
- zone of inhibition at 3000 µg/mL [1]: 0 mm
- zone of inhibition at 3000 µg/mL [2]: 16 mm
- zone of inhibition at 3000 µg/mL [3]: 0 mm
- zone of inhibition at 3000 µg/mL (Escherichia coli 04863): 0 mm
- zone of inhibition at 1000 µg/mL (Bacillus subtilis 04555; 1 mg/ml): 16 mm
- response vs control in vivo at 25 mg/kg [4, 5]: 145%
- response vs control in vivo at 50 mg/kg [4, 5]: 206%
- IC50 (HCT-8 cells): 240 nM
- IC50 (L1210 cells): 100 nM

SMILES: O=[N+]([O-])c1ccc2c3c(nn2CCNCCO)-c2ccccc2Sc13 [CH2CH2NHCH2CH2OH / NO2, 2-[[2-(5-Nitro-2H[1]benzothiopyrano[4,3,2-cd]indazol-2-yl)ethyl]amino]ethano]
- zone of inhibition at 500 µg/mL ([1]; 0.5 mg/ml): 15 mm
- zone of inhibition at 3000 µg/mL [2]: 0 mm
- zone of inhibition at 100 µg/mL ([3]; 0.1 mg/ml): 16 mm
- zone of inhibition at 100 µg/mL (Escherichia coli 04863): 16 mm
- zone of inhibition at 500 µg/mL (Bacillus subtilis 04555): 18 mm
- response vs control in vivo at 6.25 mg/kg [4, 5]: 148%
- response vs control in vivo at 12.5 mg/kg [4, 5]: 150%
- response vs control in vivo at 25 mg/kg [4, 5]: 197%
- IC50 (HCT-8 cells): 100 nM
- IC50 (L1210 cells): 20 nM

SMILES: CN(C)CCCn1nc2c3c(c(N)ccc31)Sc1ccccc1-2 [CH2CH2CH2N(CH3)2 / NH2]
- zone of inhibition at 3000 µg/mL [1]: 15 mm
- zone of inhibition at 3000 µg/mL [2]: 16 mm
- zone of inhibition at 500 µg/mL [3]: 16 mm
- zone of inhibition at 3000 µg/mL (Escherichia coli 04863): 15 mm
- zone of inhibition at 3000 µg/mL (Bacillus subtilis 04555): 0 mm
- response vs control in vivo at 50 mg/kg [4, 5]: 121%
- response vs control in vivo at 100 mg/kg ([4]; Mus musculus, P388, ip, 120 h, Dose 100.00 mg/kg intraperitoneally once daily for five days, read-out: P388 in vivo T/C × 100): 182%
- response vs control in vivo at 200 mg/kg ([4]; Mus musculus, P388, ip, 120 h, Dose 200.00 mg/kg intraperitoneally once daily for five days, survival time treated/control, read-out: P388 in vivo T/C × 100): 169%
- IC50 (HCT-8 cells): 1800 nM
- IC50 (L1210 cells): 2000 nM

SMILES: CCN(CC)CCNc1ccc2c3c(nn2CCN(CC)CC)-c2ccccc2Sc13 [CH2CH2N(C2H5)2 / NHCH2CH2N(C2H5)2, 5-[[2-(Diethylamino)ethyl]amino]-N,N-diethyl-2H[1]-benzothiopyrano[4,3,2-cd]indazofe-2-ethanamine]
- zone of inhibition at 3000 µg/mL [1]: 15 mm
- zone of inhibition at 3000 µg/mL [2]: 17 mm
- zone of inhibition at 500 µg/mL [3]: 14 mm
- zone of inhibition at 100 µg/mL (Escherichia coli 04863): 18 mm
- zone of inhibition at 100 µg/mL (Bacillus subtilis 04555; 0.1 mg/ml): 15 mm
- response vs control in vivo at 25 mg/kg [4, 5]: 155%
- IC50 (HCT-8 cells): 450 nM
- IC50 (L1210 cells): 140 nM
